Measurements as given in ChEMBL document CHEMBL2016477, “Pimarane diterpenes from the fungus Epicoccum sp. HS-1 associated with Apostichopus japonicus” (Bioorg Med Chem Lett, 2012).
Values after ≈ are worked out from the molar mass of the structure shown.

Tests used:
KB = test: Cytotoxicity against human KB cells; type: functional, cell-based
[1] = Cytotoxicity against multidrug resistant human KBv200 cells expressing p-glycoprotein; type: functional, cell-based

## C=C[C@]1(C)C=C2C(=O)C(O)=C3C(C)(C)CCC[C@]3(C)[C@@]2(O)CC1
KB
  IC50: 20.7 µg/mL (≈ 65.5 µM)
[1]
  IC50: 14.5 µg/mL (≈ 45.7 µM)

## C=C[C@]1(C)C=C2[C@@H](O)C[C@H]3C(C)(C)CCC[C@]3(C)[C@@]2(O)CC1
KB
  IC50: > 100 µg/mL
[1]
  IC50: > 100 µg/mL

## C=C[C@]1(C)C=C2C(=O)[C@@]3(O)OC[C@@]4(CCCC(C)(C)[C@@]43O)[C@@]2(O)[C@H](O)C1 [DIAPORTHINS B]
KB
  IC50: 3.86 µg/mL (≈ 10.6 µM)
[1]
  IC50: 6.52 µg/mL (≈ 17.9 µM)
